These results are taken from PubChem BioAssay AID588840 (Broad Institute, 2011).

The term AC50 denotes the concentration at which the activity in the assay is half-maximal.

Experiment [1] can be described thus: cytotoxicity in MDA231 breast tumor cells – cell-based, CellTiter-Glo luminescence, dry powder, set 2, dose response (AID 588840). The conditions noted are these: MDA-MB-231 viability, CellTiter-Glo luminescence, 72 h; at 32 µM (top of the series). On the technique in general: ATP-based viability assays read luminescence as a measure of living cells.
The test system of experiment [2] is MDA-MB-231 viability, CellTiter-Glo luminescence, 72 h. Described as above.

As to `O=C(NC1CCCC1)c1ccc(COc2ccccc2)o1`, in experiment [1], the viability fraction (lower = toxic) turned out to be 101%.

On to `CC(C)c1ccc(/C=C/C(=O)NC2=NCCS2)cc1`, for which the viability fraction (lower = toxic) in experiment [1] came out at 34.6%.

Consider `Cc1csc(NC(=O)c2ccc(COc3ccccc3)o2)n1`, for which the viability fraction (lower = toxic) in experiment [1] came to 72.4%.

In the case of `O=C(/C=C/c1ccc(-c2ccccc2)cc1)NC1=NCCS1`, the viability fraction (lower = toxic) in experiment [1] amounted to 76.4%.

As for `Cc1ccc(/C=C/C(=O)NC2=NCCS2)cc1`, in experiment [1], the viability fraction (lower = toxic) turned out to be 114%.

Regarding `COc1ccc(/C=C/C(=O)NC2=NCCS2)c(OC)c1`, the viability fraction (lower = toxic) in experiment [1] was found to be 118%.

With `Cc1csc(NC(=O)c2ccc(COc3cccc(F)c3)o2)n1`, the AC50 in experiment [2] is 480 nM.
